Assay results reported in US20020193425A1, “Cancer chemopreventative compounds and compositions and methods of treating cancers” (priority 2001, published 2002).

Key:
c-Myc oncoprotein, HL-60 = assay: c-Myc oncoprotein expression, western blotting; format: cell-based, human
Protocol: The expression of c-Myc was assessed by immunoblots as previously described. In brief, cells (10^6) were treated and harvested at various time intervals, and whole-cell pellets were lysed with detergent lysis buffer (1 ml/10^7 cells, 50 mM Tris-HCl buffer, pH 8.0, 150 mM NaCl, 1 mM DTT, 0.5 mM EDTA, 1% Nonidet® P40, 0.5% sodium deoxycholate, 0.1% sodium dodecylsulfate, 100 μg/ml phenylmethylsulfonyl fluoride, 1 μg/ml aprotinin, 2 μg/ml leupeptin and 100 μM sodium vanadate) to obtain protein lysates. Protein concentrations were quantified using a bicinchoninic acid kit. Since c-Myc is a labile protein, cell lysates were not frozen, but stored at 4° C., until all protein lysates were prepared for a particular cell line, and then western blots were performed immediately. Total protein ([…]) was separated by 10% SDS-PAGE, electroblotted to PVDF membranes, and blocked overnight with 5% nonfat dry milk. The membrane was incubated with a solution of the primary antibody (2.5 μg/ml), prepared in 1% blocking solution, for 2 h at room temperature, washed three-times for 15 min with PBS-T (PBS with 0.1%, v/v, Tween 20), and incubated with a 1:2500 dilution of horseradish peroxidase-conjugated secondary antibody for 30 min at 37° C. Blots were again washed three-times for 10 min each in PBS-T and developed by enhanced chemiluminescence (Amersham). Membranes were exposed to Kodak Biomax film and the resulting film was analyzed using Kodak 1D Image Analysis software. Membranes were then stripped and reprobed for the quantification of bactin.
Cells were treated with solvent (0.1% v/v DMSO, control), brusatol (25 ng/ml) or bruceantin (10 ng/ml) for 4 or 24 h, then analyzed by western blotting. Membranes were probed for c-Myc, and then stripped and probed for β-actin as an internal control.
Cells were treated with brusatol (25 ng/ml) or bruceantin (10 ng/ml) for 4 or 24 h, and then analyzed for c-Myc and β-actin expression using western blotting techniques. Results are expressed as percentage of c-Myc oncoprotein of control (0.1%, v/v, DMSO treated cells) values. Results were normalized relative to β-actin.

c-myc mRNA, BV173 = assay: c-myc mRNA levels, real time RT-PCR; format: cell-based
Protocol: (§1) RNA was extracted from 10^6 cells using TRIZOL® Reagent (Life Technologies). Following isopropanol precipitation, the pellet was washed in 75% aqueous ethanol and the RNA was dissolved in […] of diethyl pyrocarbonate (DEPC)-treated distilled water. Subsequently, the samples were stored at −80° C. RNA quantitation was performed by UV measurement at 260 nm. The cDNA synthesis was performed in a total volume of […], containing 1×TaqManÒ RT buffer, 5.5 mM MgCl2, 2 mM dNTPs mixture, 2.5 mM random hexamers, 4 U RNase inhibitor, 12.5 U MultiScriber RT (Perkin Elmer/Applied Biosystems) and […] of RNA. The reaction was performed for 10 min at 25° C., followed by 48° C. for 30 min and a 5 min incubation step at 95° C. After the reaction, […] of DEPC-treated distilled water was added to each sample and […] was used for each PCR.
(§2) The PCR and subsequent analyses were performed in the GeneAmp 5700 Sequence Detection System (Applied Biosystems). Real-time quantitation was performed using the TaqMan technology of Applied Biosystems (Foster City, Calif., USA). c-Myc primers and probe sequences (5′ to 3′) were as follows: […], […] and […] (Applied Biosystems).
(§3) PCR reactions were performed in triplicate. The PCR reaction mixture contained 300 nM of both primers, 150 nM TaqMan probe, and 1×TaqMan Universal Master Mix (Applied Biosystems). The reactions first were incubated at 50° C. for 2 min, followed by 10 min at 95° C. The PCR itself consisted of 40 cycles with 15 s at 95° C. and 1 min at 60° C. each. The fluorescence signal was measured during the last 30 s of the annealing/extension phase. After the PCR, a fluorescence threshold value was set and threshold cycle (Ct) values were determined, i.e., the fractional cycle at which the fluorescence signal reached this threshold. These values were used for further calculations.
(§4) β-Actin (TaqMan PDAR control, Applied Biosystems) was used as an endogenous reference to correct for any differences in the amount of total RNA used for a reaction and to compensate for different levels of inhibition during reverse transcription of RNA into cDNA. c-Myc and β-actin expression were related to a standard curve derived from a serial dilution of K562 cDNA with dH2O. Also, c-Myc and β-actin quantities were expressed in terms of ng of K562 RNA yielding the same level of expression. Subsequently, normalization was achieved by dividing the expression level of c-Myc by the β-actin expression level. Finally, results were expressed as a percentage, where the level of c-Myc observed in the DMSO-treated samples was considered as 100%.
(§5) Cells were treated with brusatol (25 ng/ml) or bruceantin (10 ng/ml) for 4 or 24 h and then analyzed for c-myc and β-actin mRNA using real time RT-PCR. Results are shown as percentage of c-myc mRNA expression of control (0.1%, v/v, DMSO) values. Results are the mean of triplicate samples (±standard deviation). c-Myc mRNA values were normalized relative to β-actin.

c-myc mRNA, Daudi = assay: c-myc mRNA levels, real time RT-PCR; format: cell-based
Protocol: as §1, §2, §3, §4, §5

c-myc mRNA, SUPB13 = assay: c-myc mRNA levels, real time RT-PCR; format: cell-based
Protocol: as §1, §2, §3, §4, §5

c-myc mRNA, U937 = assay: c-myc mRNA levels, real time RT-PCR; format: cell-based
Protocol: as §1, §2, §3, §4, §5

[1] = tested on: DMBA-induced preneoplastic lesion formation in mouse mammary organ culture; assay: Inhibition of DMBA-induced preneoplastic lesion formation in mouse mammary organ culture (MMOC); format: cell-based; details: Mus musculus; quassinoid (2 μM); in comparison with a DMBA control
Protocol: The identification of potential inhibitors of DMBA-induced preneoplastic lesion formation in mammary organ culture has been described previously. Briefly, four-week old BALB/c female mice (Charles River) were pretreated for nine days with 1 μg estradiol and 1 mg progesterone. The thoracic pair of mammary glands was dissected on silk and incubated with growth-promoting hormones in the presence of test compounds (2 μM) for 10 days. DMBA ([…]) was included in the medium (containing […]) for 24 hours on the third day of culture to induce preneoplastic mammary lesions. Following 10 days of growth promoting phase, all hormones except insulin were withdrawn and the glands were allowed to regress to lobuloalveolar structures during a 14-day incubation period. Glands then were fixed in 10% buffered formalin and stained with alum carmine. Incidence of lesion formation (percentage of glands per group with mammary lesions) was recorded, and percent inhibition was calculated by comparison with the DMBA control group that was not treated with test sample. Active samples induce 60% inhibition, based on historical controls.

## COC(=O)[C@@]12OC[C@]34[C@H]([C@@H](O)[C@@H]1O)[C@@]1(C)CC(=O)C(O)=C(C)[C@@H]1C[C@H]3OC(=O)[C@H](OC(=O)C=C(C)C)[C@@H]24 [compound 1, brusatol]
c-Myc oncoprotein, HL-60; 4 h treatment
  decrease of c-Myc protein levels: 100%
c-Myc oncoprotein, HL-60; Brusatol (25 ng/ml), 4 h
  c-Myc oncoprotein, percentage of control: 0%
c-Myc oncoprotein, HL-60; Brusatol (25 ng/ml), 24 h
  c-Myc oncoprotein, percentage of control: 17%
c-myc mRNA, BV173; Brusatol (25 ng/ml), 4 h
  c-myc mRNA expression, percentage of control: 78 ± 12 %
c-myc mRNA, BV173; Brusatol (25 ng/ml), 24 h
  c-myc mRNA expression, percentage of control: 45 ± 0 %
c-myc mRNA, Daudi; Brusatol (25 ng/ml), 4 h
  c-myc mRNA expression, percentage of control: 100 ± 7%
c-myc mRNA, Daudi; Brusatol (25 ng/ml), 24 h
  c-myc mRNA expression, percentage of control: 84 ± 1 %
c-myc mRNA, SUPB13; Brusatol (25 ng/ml), 4 h
  c-myc mRNA expression, percentage of control: 27 ± 3 %
c-myc mRNA, SUPB13; Brusatol (25 ng/ml), 24 h
  c-myc mRNA expression, percentage of control: 24 ± 1 %
c-myc mRNA, U937; Brusatol (25 ng/ml), 4 h
  c-myc mRNA expression, percentage of control: 103 ± 1%
c-myc mRNA, U937; Brusatol (25 ng/ml), 24 h
  c-myc mRNA expression, percentage of control: 19 ± 1 %
[1]
  inhibition at 2 µM: 70%

## COC(=O)[C@@]12OC[C@]34[C@H]([C@@H](O)[C@@H]1O)[C@@]1(C)CC(=O)C(O)=C(C)[C@@H]1C[C@H]3OC(=O)[C@H](OC(=O)/C=C(\C)C(C)C)[C@@H]24 [compound 2, bruceantin]
c-Myc oncoprotein, HL-60; Bruceantin (10 ng/ml), 4 h
  c-Myc oncoprotein, percentage of control: 3%
c-Myc oncoprotein, HL-60; Bruceantin (10 ng/ml), 24 h
  c-Myc oncoprotein, percentage of control: 57%
c-myc mRNA, BV173; Bruceantin (10 ng/ml), 4 h
  c-myc mRNA expression, percentage of control: 125 ± 11 %
c-myc mRNA, BV173; Bruceantin (10 ng/ml), 24 h
  c-myc mRNA expression, percentage of control: 67 ± 9 %
c-myc mRNA, Daudi; Bruceantin (10 ng/ml), 4 h
  c-myc mRNA expression, percentage of control: 134 ± 17%
c-myc mRNA, Daudi; Bruceantin (10 ng/ml), 24 h
  c-myc mRNA expression, percentage of control: 70 ± 5 %
c-myc mRNA, SUPB13; Bruceantin (10 ng/ml), 4 h
  c-myc mRNA expression, percentage of control: 38 ± 2 %
c-myc mRNA, SUPB13; Bruceantin (10 ng/ml), 24 h
  c-myc mRNA expression, percentage of control: 24 ± 2 %
c-myc mRNA, U937; Bruceantin (10 ng/ml), 4 h
  c-myc mRNA expression, percentage of control: 86 ± 1%
c-myc mRNA, U937; Bruceantin (10 ng/ml), 24 h
  c-myc mRNA expression, percentage of control: 19 ± 2 %
[1]
  inhibition at 2 µM: 70%
